Reference: publication PMC10825133, “Repurposing proteasome inhibitors for improved treatment of triple-negative breast cancer” (Cell Death Discovery, 2024)
Read-outs that look alike come from different tables or passages of the source.

Assays:
BT-549 cells = assay: Resazurin-based cell viability assay, monotherapy drug screen; design: species or system human; AUC: scale not given here; settings: BT-549; for AUC: area under the dose response curve, 24 h; for GRmax: drug efficacy at highest tested dose (<0 cytotoxic, 0 cytostatic, >0 partial growth inhibition)
Method: (§1) Eighteen pharmaceutical compounds were purchased from Selleckchem. […] The stock solutions were stored at -80°C. […] New drug plates were prepared for each drug screen.
(§2) To determine the optimal seeding density and ensure that the cells were in the exponential phase during the duration of the experiment (approx. 52h), each cell line (BT-549, CAL-148, HCC1806, HCC38, HCC70, MCF-10A, MCF-7, MDA-MB-436, MDA-MB-453, and MDA-MB-468) was seeded at different concentrations (1000 to 16000 cells) per 96-well, as previously described. Cell viability was measured daily (day 0 [plating day] to day 4) using 0.2 mg/ml resazurin solution prepared from resazurin sodium salt (Fisher Scientific) dissolved in sterile 1xPBS (ThermoFisher Scientific). Before use, the resazurin solution was brought to RT before 10 µl (10% of cell medium volume) was added to each 96-well and incubated for 4h at 37°C. The absorbance was measured with a 560 nm excitation filter and a 615 nm emission filter in a Wallac 1420 VICTOR2™ microplate reader (Perkin Elmer). The slope of the curve was used to determine the optimal seeding density, i.e., the highest seeding density with linear growth between days 1 and 3.

HCC38 cells = assay: as above; design: species or system human; AUC: scale not given here; settings: HCC38; for AUC: area under the dose response curve, 24 h; for GRmax: drug efficacy at highest tested dose (<0 cytotoxic, 0 cytostatic, >0 partial growth inhibition)
Method: as §1, §2

MDA-MB-453 cells = assay: as above; design: species or system human; AUC: scale not given here; settings: MDA-MB-453; for AUC: area under the dose response curve, 24 h; for GRmax: drug efficacy at highest tested dose (<0 cytotoxic, 0 cytostatic, >0 partial growth inhibition)
Method: as §1, §2

HCC70 cells = assay: as above; design: species or system human; AUC: scale not given here; settings: HCC70; for AUC: area under the dose response curve, 24 h; for GRmax: drug efficacy at highest tested dose (<0 cytotoxic, 0 cytostatic, >0 partial growth inhibition)
Method: as §1, §2

MDA-MB-468 cells = assay: as above; design: species or system human; AUC: scale not given here; settings: MDA-MB-468; for AUC: area under the dose response curve, 24 h; for GRmax: drug efficacy at highest tested dose (<0 cytotoxic, 0 cytostatic, >0 partial growth inhibition)
Method: as §1, §2

MCF-7 cells = assay: as above; design: species or system human; AUC: scale not given here; settings: MCF-7; for AUC: area under the dose response curve, 24 h; for GRmax: drug efficacy at highest tested dose (<0 cytotoxic, 0 cytostatic, >0 partial growth inhibition)
Method: as §1, §2

MDA-MB-436 cells = assay: as above; design: species or system human; AUC: scale not given here; settings: MDA-MB-436; for AUC: area under the dose response curve, 24 h; for GRmax: drug efficacy at highest tested dose (<0 cytotoxic, 0 cytostatic, >0 partial growth inhibition)
Method: as §1, §2

HCC1806 cells = assay: as above; design: species or system human; AUC: scale not given here; settings: HCC1806; for AUC: area under the dose response curve, 24 h; for GRmax: drug efficacy at highest tested dose (<0 cytotoxic, 0 cytostatic, >0 partial growth inhibition)
Method: as §1, §2

MCF-10A cells = assay: as above; design: species or system human; AUC: scale not given here; settings: for AUC: area under the dose response curve, 24 h; for GRmax: drug efficacy at highest tested dose (<0 cytotoxic, 0 cytostatic, >0 partial growth inhibition)
Method: as §1, §2

[1] = test system: eight TNBC cell lines (BT-549, CAL-148, HCC1806, HCC38, HCC70, MDA-MB-436, MDA-MB-453, MDA-MB-468); assay: Monotherapy drug screen, mean across the TNBC cell lines; settings: TNBC cell lines; for cytotoxic effect at the highest dose: by GRmax
Method: Eighteen pharmaceutical compounds were purchased from Selleckchem (Supplementary Table 2). Stock solutions were prepared using dimethyl sulfoxide (DMSO; Merck), physiological saline (sodium chloride 0.9%) or Milli-Q water, and stored at −80 °C. […] Matched concentration solvent vehicle controls were used for each drug concentration. The drug screens were performed in triplicate and repeated three (monotherapy) or two (combination therapy) times (Fig. 7).
The optimal seeding density per 96-well was determined for each cell line as previously described. The cells were seeded at a density of 4.0 × 10^3 to 7.5 × 10^3 (cell type dependent) in 96-well clear, flat-bottom microplates (Corning Life Sciences, Sigma-Aldrich) in 100 µl complete culture medium (Supplementary Table 1) and cultured for 24 h. Cell viability was determined using the resazurin assay in untreated cells at the time of plating (t = 0) and treated cells after 24 h drug treatment (Fig. 7). Percentage cell viability was calculated as 100% × (absorbance of treated cells – absorbance of background controls) / (absorbance of matched solvent vehicle controls – absorbance of background controls). The area under the curve (AUC), half-maximal inhibitory concentration (IC50), drug potency (GR50), and drug efficacy (GRmax) were determined for each compound using the GRmetrics (version 1.20.0) package in R. The monotherapy data were evaluated with the IDACombo (version 1.0.2) package in R to predict potential drug combinations (Table 1). SynergyFinder (version 3.2.10) package in R was used to identify synergistic drug combinations.
Eighteen pharmaceutical compounds were purchased from Selleckchem. […] The solubility of the compound was enhanced by pre-heating the solvent (lukewarm), if necessary. […] The stock solutions were stored at -80°C. […] Matched concentration solvent vehicle controls were used for each drug concentration. The drug screens were performed in triplicate and repeated three times for the monotherapies and twice for the combination treatments. The drug(s) and corresponding controls were plated in 96-well PCR plates (VWR) and stored at -20°C (Fig. 6). The drug plates were thawed, centrifuged (3000 rpm for 30s), and acclimatized to RT before the drugs were added to the cells. New drug plates were prepared for each drug screen.
The cells were seeded at a density of 4.0x10^3 to 7.5x10^3 (cell type-dependent) in 96-well clear, flat-bottom microplates (Corning Life Sciences, Sigma-Aldrich) in 100 µl culture medium supplemented with 10% FBS and cultured for 24h. Cell viability was determined using the resazurin assay after 24h drug treatment (Fig. 6). Percentage cell viability was calculated as 100% × (absorbance of treated cells – absorbance of background controls) / (absorbance of matched solvent vehicle controls – absorbance of background controls). Normalized growth rate inhibition (GR) was assessed using the absorbance of untreated cells after the time of plating (t = 0). […] For combination treatment, the monotherapy data were evaluated with the IDACombo (version 1.0.2)[20] package in R to predict potential drug combinations (Table 1). SynergyFinder (version 3.2.10)[21] package in R was used to identify synergistic drug combinations.

[2] = growth rate inhibition concentration at GR(c) = 0.5, 24 h, read-out: GR50 (the source's name)
[3] = 24 h drug treatment, read-out: IC50
[4] = Homo sapiens, 24 h drug treatment, read-out: IC50
[5] = Homo sapiens, growth rate inhibition concentration at GR(c) = 0.5, 24 h, read-out: GR50 (the source's name)

| SMILES | AUC (BT-549 cells) | GRmax (BT-549 cells) | IC50 (BT-549 cells; [2]) | IC50 (HCC38 cells; [3]) | AUC (HCC38 cells) | GRmax (HCC38 cells) | IC50 (HCC38 cells; [2]) | AUC (MDA-MB-453 cells) | GRmax (MDA-MB-453 cells) | IC50 (HCC70 cells; [3]) | AUC (HCC70 cells) | GRmax (HCC70 cells) | AUC (MDA-MB-468 cells) | AUC (MCF-7 cells) | GRmax (MCF-7 cells) | AUC (MDA-MB-436 cells) | GRmax (MDA-MB-436 cells) | AUC (HCC1806 cells) | GRmax (HCC1806 cells) | AUC (MCF-10A cells) | other results |
| --- | --- | --- | --- | --- | --- | --- | --- | --- | --- | --- | --- | --- | --- | --- | --- | --- | --- | --- | --- | --- | --- |
| N.N.O=C([O-])C1(C(=O)[O-])CCC1.[Pt+2] [Carboplatin] | 0.85 | 0.39 | 670 nM | 890 nM | 0.88 | 0.03 | 430 nM | 0.98 | 0.79 | 450 nM | 0.83 | −0.42 | 0.81 | 0.91 | −0.15 | 0.91 | 0.41 | 0.90 | 0.53 | 0.90 | IC50 (HCC70 cells; [2]): 270 nM; IC50 (MDA-MB-468 cells; [3]): 470 nM; GRmax (MDA-MB-468 cells): 0.02; IC50 (MDA-MB-468 cells; [2]): 240 nM; IC50 (MCF-7 cells; [2]): 360 nM; IC50 (MDA-MB-436 cells; [2]): 870 nM; IC50 (MCF-10A cells; [3]): 730 nM; GRmax (MCF-10A cells): 0.19; IC50 (MCF-10A cells; [2]): 760 nM; cytotoxic effect at the highest dose [1]: lowest cytotoxic effects |
| N.N.[Cl][Pt][Cl] [Cisplatin] | 0.57 | −0.16 | 35 nM | 30 nM | 0.45 | −0.67 | 19 nM | 0.75 | 0.25 | 22 nM | 0.37 | −0.89 | 0.37 | 0.66 | −0.96 | 0.62 | 0.17 | 0.48 | −0.72 | 0.42 | IC50 (BT-549 cells; [3]): 53 nM; IC50 (MDA-MB-453 cells; [3]): 240 nM; IC50 (MDA-MB-453 cells; [2]): 95 nM; IC50 (HCC70 cells; [2]): 15 nM; IC50 (MDA-MB-468 cells; [3]): 15 nM; GRmax (MDA-MB-468 cells): −0.46; IC50 (MDA-MB-468 cells; [2]): 7.5 nM; IC50 (MCF-7 cells; [3]): 160 nM; IC50 (MCF-7 cells; [2]): 15 nM; IC50 (MDA-MB-436 cells; [3]): 64 nM; IC50 (MDA-MB-436 cells; [2]): 43 nM; IC50 (HCC1806 cells; [3]): 48 nM; IC50 (HCC1806 cells; [2]): 42 nM; IC50 (MCF-10A cells; [3]): 27 nM; GRmax (MCF-10A cells): −0.32; IC50 (MCF-10A cells; [2]): 28 nM; area under the dose response curve (AUC), mean ± SD ([1]; 24 h): 0.51 ± 0.10 |
| COc1cccc2c1C(=O)c1c(O)c3c(c(O)c1C2=O)C[C@@](O)(C(=O)CO)C[C@@H]3O[C@H]1C[C@H](N)[C@H](O)[C@H](C)O1 [Doxorubicin] | 0.89 | 0.36 | – | – | 0.83 | 0.01 | – | 0.88 | – | – | 0.88 | −0.35 | 0.84 | 0.93 | 0.44 | 0.85 | 0.26 | 0.87 | 0.54 | 0.72 | IC50 (BT-549 cells; [4]): 7600 nM; IC50 (BT-549 cells; [5]): 5600 nM; IC50 (HCC38 cells; [4]): 2900 nM; IC50 (HCC38 cells; [5]): 770 nM; IC50 (MDA-MB-453 cells; [4]): 8100 nM; IC50 (MDA-MB-453 cells; [5]): 4600 nM; IC50 (HCC70 cells; [4]): 3300 nM; IC50 (HCC70 cells; [5]): 1800 nM; IC50 (MDA-MB-468 cells; [4]): 3000 nM; IC50 (MDA-MB-468 cells; [5]): 1500 nM; IC50 (MCF-7 cells; Homo sapiens, MCF7, 24 h drug treatment, read-out: IC50): 1800 nM; IC50 (MCF-7 cells; Homo sapiens, MCF7, growth rate inhibition concentration at GR(c) = 0.5, 24 h, read-out: GR50 (the source's name)): 5700 nM; IC50 (MDA-MB-436 cells; [4]): 9700 nM; IC50 (MDA-MB-436 cells; [5]): 3400 nM; IC50 (HCC1806 cells; [5]): 6000 nM; IC50 (MCF-10A cells; [4]): 990 nM; IC50 (MCF-10A cells; [5]): 980 nM; cytotoxic effect at the highest dose [1]: lowest cytotoxic effects |
